Experimental data: patent publication US7538185B2, “Glucagon-like peptide-1 analogs with long duration of action” (Theratechnologies Inc., priority 2004, dated 2009)

Columns and labels:
CD-1 mice [1] = assay: Post-prandial glucose lowering in fed CD-1 mice (Example 6, FIG. 4); assay type: in vivo; settings: 400 μg/kg sc, AUC glucose over 6 hours
Procedure: Post-prandial AUC glucose levels for a 6 hour period are presented as a bar (mean ±SEM; n=the number of animals as presented above the bar). […] FIGS. 5, 6, 7 and 8 illustrate the effect (dose response) on post-prandial glucose levels in CD-1 mice for selected analogs. […] The blood glucose levels were measured for a period of up to 6 hours following injection (mean ±SEM; upper panel). The AUC glucose for the 6 hours period is presented as a bar (mean ±SEM; lower panel; n is the number of animals as presented on top of the lower panel bars); The animals (CD-1 mice) were maintained on standard laboratory chow under a 12:12 light:dark cycle. The animals were kept in groups of 4 mice per cage. […] The amount of food eaten was monitored. The food was then removed and the animals were injected subcutaneously with either vehicle or with a GLP-1 analogue to be tested. […] A small piece of the tip of the tail of the CD-1 mice was cut with a scalpel and a drop of blood drawn by applying light pressure with the thumb and index from the base of the tail to the tip. The drop of blood was placed on a glucometer strip (Accucheck™ compact, Roche) and a reading obtained. The scab was removed and the same procedure applied for each subsequent measurement.

[2] = tested on: streptozotocin-induced diabetic CD-1 mice; assay: Glucose lowering in fed streptozotocin-induced diabetic CD-1 mice (Example 8, FIGS. 12-16); assay type: in vivo; settings: for glucose levels of streptozotocin-induced diabetic mice / duration of action: fed STZ-induced diabetic CD-1 mice, sc; for duration of action: FIGS. 12-16
Procedure: Blood glucose levels were measured for 12 hours post-injection (mean ±SEM; upper panel). […] In order to compare the duration of the effects of TH0396 and Exendin-4™, the glucose levels at the last hour of observation were analyzed in a dose-dependent manner. […] At 10:00 am, the animals were injected subcutaneously with the agent. Blood glucose levels were measured for 12 hours post-injection (mean ±SEM; upper panel). Average glucose levels at 11 and 12 hours are presented after subtracting the fed glucose levels of normal mice (n is the number of animals as presented on top of the lower panel bars). The animals (CD-1 mice) were maintained on standard laboratory chow under a 12:12 light:dark cycle. The animals were kept in groups of 4 mice per cage. […] The amount of food eaten was monitored for the duration of the experiment. […] A small piece of the tip of the tail of the CD-1 mice was cut with a scalpel and a drop of blood drawn by applying light pressure with the thumb and index from the base of the tail to the tip. The drop of blood was placed on a glucometer strip (Accucheck™ compact, Roche) and a reading obtained. The scab was removed and the same procedure applied for each subsequent measurement.

[3] = tested on: cAMP production in RINm5F cells; assay: cAMP production in RINm5F cells (Example 5); assay type: cell-based; settings: 30 minutes at 37° C., 0.1 mM IBMX, mean ± SEM
Procedure: RINm5F cells (ATCC # CRL-2058) were grown according to the manufacturer's specifications. Cells from approximately 90% confluent flasks were trypsinized and counted. […] Samples of the stock solutions were then aliquoted in 100 μl volumes (100 μg), to which were then added 400 μl H2O. The aliquots were then frozen and lyophilized overnight. The lyophilized samples were kept at −80° C. until used. The samples were prepared just prior to running the experiments, at a concentration of 1 mM (accounting for peptide purity and peptide content when available). From 2× stock solutions, dose-responses (10^−10 M to 10^−5 M) were measured in RPMI containing 0.1 mM IBMX. […] Cell culture media was gently aspired from the wells. The cells were then pre-incubated in 100 μl RPMI 0.1 mM IBMX at 37° C. for 10 minutes. […] At the end of the incubation period, the supernatant was collected and assayed for cAMP concentration, using a radioimmunoassay kit (DPC). Radioactive counts were transformed into cAMP amounts using a standard curve. The obtained cAMP values were corrected for the total protein in the corresponding wells as determined using the Coomassie blue assay. The cAMP values are expressed as mean ±SEM in pmol/mg protein (Table 3). Dose responses of cAMP were fitted to a sigmoidal curve model (fixed slope) using GraphPad Prism 3.02™. When performing a protein assay, the amount of protein per well is assayed for each sample. The cells were lysed with NaOH (0.1 N) and a 10 μl aliquot was used to assay the protein levels. This is done using Coomassie Blue (Pierce) and an automated plate reader Emax Pro™ (Molecular Devices).

[4] = Nauck 1996; Todd 1998; cited from earlier work
CD-1 mice [5] = assay: Post-prandial blood glucose levels in CD-1 mice (Example 2, FIG. 1); assay type: in vivo; settings: CD-1 mice fasted overnight, fed 30 minutes, peptides 400 μg/kg sc, blood glucose followed 6 hours
Procedure: Various peptides, including peptides of the present invention (400 μg/kg), were administered sc at 30 minutes and the blood glucose levels were determined for the next 6 hours. The data are presented as mean ±SEM values;
Overnight fasted CD-1 normal female mice (6 wk. Charles River, Montreal, Canada), were fed ad libidum for 30 minutes. […] Blood samples were drawn by tail vein excision and blood glucose levels (mmol/L) were determined for the next 6 hours using a One-Touch™ glucometer.

[6] = active GLP-1; Holst 1994; cited from earlier work
Sprague-Dawley rats = assay: Blood glucose levels in Sprague-Dawley rats under hyperglycemic clamping (Example 3, FIG. 2); assay type: in vivo; settings: hyperglycemic clamping at 15 mM, sc
Procedure: Various peptides, including peptides of the present invention (100 μg/kg) were administered sc. Alterations in blood glucose levels (Delta glucose: mM) are shown on the abscissa. The data are presented as mean ±SEM values;
The animals (Sprague-Dawley rats) were maintained on standard laboratory chow under a 12:12 light:dark cycle. Following a 12 hour fasting period, the animals were anesthetized (Isoflurane 2%) and a carotid and jugular catheter installed to allow blood withdrawal and glucose injections (1.0 g/kg bolus followed by an infusion of 1.4 g/kg/hr) respectively. The animals received a subcutaneous injection of the analogs at different concentrations (300 μg/kg) 90 minutes after initiating the glucose bolus and infusion, at a time period where blood glucose concentrations have reached a steady level. Blood glucose measurements were taken prior to and 30, 60, 90, 100, 110, 120, 135, 150, 180, 210, and sometimes 240 and 300 minutes after the injection of glucose.
Glucose measurements were carried out immediately following sampling (0.3-0.4 ml; if needed) by placing a blood droplet on a glucometer strip. The glucose measurements were carried out prior to plasma separation (centrifugation) required to perform the insulin and/or any other assay.

[7] = target: T1, GLP-1 receptor in RINm5F cells (Rattus norvegicus, UniProt P32301); assay: Displacement of 125I-GLP-1(7-36)NH2 using RINm5F cells (Example 4, FIG. 3); assay type: binding; settings: RINm5F cell membranes, 400 μg protein, 22° C., 45 minutes
T1 construct: The cell membranes were diluted to obtain aliquots of 400 μg of protein per assay tube; host or cells: RINm5F cells, sonicated to a membrane preparation
T1 sequence (P32301 22-463): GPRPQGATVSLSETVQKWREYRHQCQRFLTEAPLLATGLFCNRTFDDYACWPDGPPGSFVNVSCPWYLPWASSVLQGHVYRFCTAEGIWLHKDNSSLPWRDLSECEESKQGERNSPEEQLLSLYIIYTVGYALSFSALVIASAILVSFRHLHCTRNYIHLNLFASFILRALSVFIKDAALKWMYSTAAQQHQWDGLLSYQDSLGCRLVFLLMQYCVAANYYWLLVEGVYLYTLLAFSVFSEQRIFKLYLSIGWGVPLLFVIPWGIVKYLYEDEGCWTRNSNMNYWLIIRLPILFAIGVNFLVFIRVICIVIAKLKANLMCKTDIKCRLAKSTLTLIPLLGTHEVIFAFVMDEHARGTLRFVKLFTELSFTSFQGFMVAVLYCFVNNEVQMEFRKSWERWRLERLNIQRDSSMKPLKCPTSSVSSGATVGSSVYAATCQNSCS
Procedure: The IC50 is calculated as the half-maximal inhibition of binding of the radiolabeled peptide; RINm5F cells (ATCC # CRL-2058) were grown according to the manufacturer's specifications. Cells from confluent flasks were maintained for four (4) days prior to the experiment. The cells were then scrapped and collected in 15 ml conical tubes followed by sonication and evaluation of protein levels. The cell membranes were diluted to obtain aliquots of 400 μg of protein per assay tube. Aliquots of RINm5F cells containing 400 μg of protein were incubated at 22° C. […] The reactions were stopped using 100 mM Tris-HCl (3×3 mL, pH 7.4) and the solutions passed through a GF/C Whatman glass microfiber filter. The latter was subsequently placed into glass tubes and counted on a Packard COBRA II Gamma counter™. Displacement isotherms were traced and analyzed using Prism™ (GraphPad, Ca).

Row | Substance | reduction of post-prandial glucose (CD-1 mice [1]) | glucose levels of streptozotocin-induced diabetic mice [2] | duration of action [2] | EC50 [3] [nM] | Maximal response [3] [pmol/mg protein] | further results
1 | trans-3-hexenoyl-NH-His-Ala-Glu-Gly-Thr-Phe-Thr-Ser-Asp-Val-Ser-Ser-Tyr-[(S)-Octylglycine]-Glu-Gly-Gln-Ala-Ala-Lys-Glu-Phe-Ile-Ala-Trp-Leu-Val-Lys-Gly-Arg-NH2 [TH0424] | potently reduce post-prandial glucose | down to those seen in normal feeding mice | extended duration of action | 6.3 ± 1.7 | 4.3 ± 0.2 | –
2 | HAEGTFTSDVSSYLEGQAAKEFIAWLVKGR [GLP-1, reference compound] | – | – | – | 1.8 ± 0.9 | 1.5 ± 0.3 | duration of hypoglycemic action [4]: 2 to 3 h; duration of hypoglycemic action (CD-1 mice [5]): 2 h; metabolic clearance rate [6]: 12 to 13 min
3 | 2-Hydroxybenzoyl-NH-His-Ala-Glu-Gly-Thr-Phe-Thr-Ser-Asp-Val-Ser-Ser-Tyr-Leu-Glu-Gly-Gln-Ala-Ala-Lys-Glu-Phe-Ile-Ala-Trp-Leu-Val-Lys-Gly-Arg-NH2 [TH0318] | – | – | – | 13.6 ± 2.9 | 3.5 ± 0.2 | duration of hypoglycemic action (CD-1 mice [5]): 2 h
4 | His-Gly-Glu-Gly-Thr-Phe-Thr-Ser-Asp-Val-Ser-Ser-Tyr-Leu-Glu-Gly-Gln-Ala-Ala-Lys-Ala-Phe-lle-Glu-Trp-Leu-Lys-Asn-NH2 [TH0384] | – | – | – | – | – | potency on blood glucose levels (delta glucose) (Sprague-Dawley rats): more potent than GLP-1 or the 2-hydroxybenzoyl-GLP-1 analog TH0318; potency in displacing receptor bound ligand (125I-GLP-1(7-36)NH2) [7]: considerably more potent than GLP-1
5 | trans-3-hexenoyl-NH-His-Ala-Glu-Gly-Thr-Phe-Thr-Ser-Asp-Val-Ser-Ser-Tyr-[(S)-Octylglycine]-Glu-Gly-Gln-Ala-Ala-Lys-Glu-Phe-Ile-Ala-Trp-Leu-Val-Lys-Aib-Arg-NH2 [TH0426] | – | – | – | 0.4 ± 0.4 | 5.7 ± 0.6 | –
6 | His-Ala-Glu-Gly-Thr-Phe-Thr-Ser-Asp-Val-Ser-Ser-Tyr-[(S)-Octylglycine]-Glu-Gly-Gln-Ala-Ala-Lys-Glu-Phe-Ile-Ala-Trp-Leu-Val-Lys-Gly-Arg-NH2 [TH0322] | – | – | – | 0.2 ± 0.2 | 1.0 ± 0.2 | potency in displacing receptor bound ligand (125I-GLP-1(7-36)NH2) [7]: considerably more potent than GLP-1
7 | trans-3-hexenoyl-NH-His-Ala-Glu-Gly-Thr-Phe-Thr-Ser-Asp-Val-Ser-Ser-Tyr-[(S)-Octylglycine]-Glu-Gly-Gln-Ala-Ala-Lys-Ala-Phe-Ile-Glu-Trp-Leu-Lys-Asn-NH2 [TH0395] | potently reduce post-prandial glucose | down to those seen in normal feeding mice | extended duration of action | 6.1 ± 0.9 | 3.7 ± 0.4 | potency compared with Exendin-4 ([2]; STZ-induced diabetic mice, initial 6 hours of the study, FIG. 14): more potent then Exendin-4™
8 | trans-3-hexenoyl-NH-His-Ala-Glu-Gly-Thr-Phe-Thr-Ser-Asp-Val-Ser-Ser-Tyr-[(S)-Octylglycine]-Glu-Gly-Gln-Ala-Ala-Lys-Ala-Phe-Ile-Glu-Trp-Leu-Val-Lys-Asn-NH2 [TH0396] | potently reduce post-prandial glucose | down to those seen in normal feeding mice | extended duration of action | 2.3 ± 1.7 | 3.9 ± 0.3 | –
9 | His-Gly-Glu-Gly-Thr-Phe-Thr-Ser-Asp-Val-Ser-Ser-Tyr-[(S)-Octylglycine]-Glu-Gly-Gln-Ala-Ala-Lys-Ala-Phe-Ile-Glu-Trp-Leu-Lys-Asn-NH2 [TH0397] | potently reduce post-prandial glucose | – | – | – | – | –
